Experimental data reported in patent publication US20100069326A1, “Combination Therapies to Treat Cardio- and Cerebro-Vascular Disorders” (priority 2008, published 2010).
Where two headings read alike, the source gives them in different places.

Columns and labels:
[1] = tested on: rat middle cerebral artery occlusion (MCAO) model of stroke; settings: cited from earlier work; for reducing infarct size (in words): dose of 30 mg/kg, triflusal versus aspirin
[2] = tested on: Male Wistar rats with unilateral MCAO (cerebral ischemia); experiment: Rat stroke model (permanent MCA occlusion), infarct volume assessment; type: in vivo; settings: triflusal 30 mg/kg alone, 3 days after unilateral MCAO; for Infarct volume: three days, mean±SEM
Method: Male Wistar rats (265-360 g) were randomly divided into four treatment groups (n=5-9 for each group). Prior to and following surgery rats were housed in single cages (12/12 h light/dark cycle) and were fed at libitum. Prior to surgery, all rats were anaesthetized with a single dose of sodium pentobarbital (60 mg/kg ip) and placed in a David Kopf stereotaxic apparatus. Rectal temperatures were monitored and maintained constant at 37° C. by a heating pad while the rats were under anesthesia. The right MCA was exposed. […] Removal of a portion of the bone and exposure and ligation of the MCA was done with the aid of an operating stereomicroscope. Immediately following surgery, rats received one of the following treatments: 30 mg/kg triflusal or 30 mg/kg triflusal and 200 mg/kg dipyridamole or 10 mg/kg triflusal and 200 mg/kg dipyridamole or vehicle only for next three days. Three days after surgery, all animals were euthanized via pentobarbital overdose and perfused transaortically first with saline which was immediately followed by a low perfusion for about 1 h with 2% solution of triphenyl-tetrazolium chloride (TTC) that is followed by 4% formaldehyde (pH 7.4). The brains were removed and coronal sections (1 mm) were cut for infarct measurement. Investigator was blind to the sample treatment. Serial brain sections were examined and the areas of infarcted tissue were measured (SigmaScan […].0, SPSS Inc., Chicago Ill., USA). In addition, the hemispheric areas of each tissue section were measured to account for any brain swelling that might have occurred following cerebral ischemia. The volume of the infarct was calculated in mm^3 by integrating the infarct sizes for each of the tissue sections that contained infarcted tissue. The 1 mm sections were photographed using a Nikon digital camera. Results are expressed as mean±SEM of each measure. The volumes of the infarcts for each of the groups were compared by Student's unpaired two-tailed t tests. Significance was set at p≦0.05. Correlations between parameters were tested by linear regression analysis

[3] = tested on: cAMP phosphodiesterase; settings: compared with aspirin; cited from earlier work

SMILES | reducing infarct size (in words) [1] | Infarct volume [2] | Infarct volume ([2]; listed as triflusal) | Infarct reduction ([2]; vs vehicle) | infarct reduction in the MCAO model ([1]; triflusal 10 mg/kg/day, not significant neuroprotection) | infarct reduction in the MCAO model ([1]; triflusal 30 mg/kg/day, significant neuroprotection) | potency as inhibitor of cAMP phosphodiesterase relative to aspirin [3]
CC(=O)Oc1ccccc1C(=O)O [aspirin] | equally effective |  |  |  |  |  | 
CC(=O)Oc1cc(C(F)(F)F)ccc1C(=O)O [Triflusal, 2-acetoxy-4-trifluoromethylbenzoic acid] | equally effective | 73.59 ± 7.0 mm^3 | 73.59±7.0 mm^3 | 30.72 ± 6.6% | 12.56% | 43.95% | five times more potent
